# Laboratory results published in patent US20230083012A1, “DIHYDROPYRIMIDINE DERIVATIVES AND USES THEREOF IN THE TREATMENT OF HBV INFECTION OR OF HBV-INDUCED DISEASES” (priority 2019, published 2023).
# Key:
# [1] = system: HBV; assay: Anti-HBV activity in HepG2.2.15 cells (HBV DNA in culture medium by qPCR); type: cell-based; conditions: Hepatitis B virus, HepG2.2.15, 144 h, HepG2.2.15 cells, 6 days treatment, HBV DNA in culture medium quantified by real-time PCR; read-out: EC50
# Description: Example 2: Anti-Viral Assay in HepG2.2.15 Cells
# (§1) HepG2.2.15 (the HepG2.2.15 cell line can be produced by transfection of the HepG2 cell line as described in Sells, Chen, and Acs 1987 (Proc. Natl. Acad. Sci. USA 84: 1005-1009), and the HepG2 cell line is available from ATCC® under number HIB-8065™)
# (§2) HepG2.2.15 cells were plated into 96-well plate in 2% FBS culture medium at the density of 40,000 cells/well and 5,000 cells/well for HBV inhibitory activity and cytotoxicity determination, respectively. After incubation at 37° C., 5% CO2 overnight, cells were treated with medium containing compounds for 6 days with medium and compounds refreshed after 3 days of treatment. Each compound was tested in a 1:3 serial dilutions at 8 different concentrations in triplicate. The highest concentration of the compounds was 10 uM or 1 uM for anti-HBV activity assay and 100 uM for cytotoxicity determination.
# The change of HBV DNA level induced by the compounds was assessed by quantitative real-time polymerase chain reaction (qPCR). Briefly, the HBV DNA in the culture medium was extracted using QIAamp 96 DNA Blood Kit according to the manual and then quantified by real-time PCR assay using the primers and probe in the table 2 below.
# (§3) 2) DATA Analysis EC50 and CC50 values are calculated by the GRAPTIPAD PRISM software.
# [2] = Cytotoxicity determination in HepG2.2.15 cells (CCK-8 cell viability); type: cell-based; conditions: human, 6 days treatment, CCK-8 assay, highest concentration 100 uM
# Description: as §1, §2
# Cell viability was determined by CCK-8 assay. After 6 days of compounds treatment, 20 μl CCK-8 reagents were added to each well of cytotoxicity assay plates. Cell plates were incubated at 37° C., 5% CO2 for 2.5 h. The absorbance at 450 nm wavelength and the absorbance at 630 nm wavelength as reference was measured.
# as §3
SMILES,EC50 [1] [nM],CC50 at 6 days [2] [nM]
"CCOC(=O)C1=C(CN2CC(F)(F)[C@H]3CN(C(C)C(=O)O)C[C@H]32)NC(c2nccs2)=N[C@H]1c1cccc(F)c1C (single isomer, unassigned) [Compound 14B]",102,67900
"CCOC(=O)C1=C(CN2CC(F)(F)[C@H]3CN([C@H](C)C(=O)O)C[C@H]32)NC(c2nccs2)=N[C@H]1c1cccc(F)c1C (single isomer, unassigned) [Compound 14E]",62.3,85300
"CCOC(=O)C1=C(CN2CC(F)(F)[C@H]3CN([C@@H](C)C(=O)O)C[C@H]32)NC(c2nccs2)=N[C@H]1c1cccc(F)c1C (single isomer, unassigned) [Compound 14F]",125,> 100000
"CCOC(=O)C1=C(CN2CC(F)(F)[C@H]3CN(CC(C)C(=O)O)C[C@H]32)NC(c2nccs2)=N[C@H]1c1cccc(F)c1C (single isomer, unassigned) [Compound 15B]",27.2,> 100000
"CCOC(=O)C1=C(CN2CC(F)(F)[C@H]3CN(C[C@@H](C)C(=O)O)C[C@H]32)NC(c2nccs2)=N[C@H]1c1cccc(F)c1C (single isomer, unassigned) [Compound 15E]",22.5,41700
"CCOC(=O)C1=C(CN2CC(F)(F)[C@H]3CN(C[C@H](C)C(=O)O)C[C@H]32)NC(c2nccs2)=N[C@H]1c1cccc(F)c1C (single isomer, unassigned) [Compound 15F]",16.1,39000
"CCOC(=O)C1=C(CN2CC(F)(F)[C@@H]3CN(CC4(C(=O)O)CC4)C[C@@H]32)NC(c2nccs2)=N[C@H]1c1cccc(F)c1C (single isomer, unassigned) [Compound 16B]",68.6,> 100000
"CCOC(=O)C1=C(CN2CC(F)(F)[C@@H]3CN(CCC(C)(C)C(=O)O)C[C@@H]32)NC(c2nccs2)=N[C@H]1c1cccc(F)c1C (single isomer, unassigned) [Compound 17B]",123,72800
"CCOC(=O)C1=C(CN2CC(F)(F)[C@H]3CN([C@H]4C[C@H](C(=O)O)C4)C[C@H]32)NC(c2nccs2)=N[C@H]1c1cccc(F)c1C (single isomer, unassigned) [Compound 18A]",61.1,66300
"CCOC(=O)C1=C(CN2CC(F)(F)[C@H]3CN([C@H]4C[C@@H](C(=O)O)C4)C[C@H]32)NC(c2nccs2)=N[C@H]1c1cccc(F)c1C (single isomer, unassigned) [Compound 18B]",73.7,64200
"COC(=O)C1=C(CN2CC(F)(F)C3CN(CC(C)(C)C(=O)O)CC32)NC(c2nccs2)=N[C@H]1c1cccc(F)c1C (single isomer, unassigned) [Compound 19B, 3-((cis)-3,3-difluoro-1-((6-(3-fluoro-2-methylphenyl)-5-(methoxycarbonyl)-2-(thiazol-2-yl)-3,6-dihydropyrimidin-4-yl)methyl)hexahydropyrrolo[3,4-b]pyrrol-5(1H)-yl)-2,2-dimethylpropanoic acid]",49.3,24200
"COC(=O)C1=C(CN2CC(F)(F)[C@@H]3CN(CC(C)(C)C(=O)O)C[C@@H]32)NC(c2nccs2)=N[C@H]1c1ccc(F)cc1Cl (single isomer, unassigned) [Compound 20B, 3-((cis)-1-((6-(2-chloro-4-fluorophenyl)-5-(methoxycarbonyl)-2-(thiazol-2-yl)-3,6-dihydropyrimidin-4-yl)methyl)-3,3-difluorohexahydropyrrolo[3,4-b]pyrrol-5(1H)-yl)-2,2-dimethylpropanoic acid]",39.5,> 100000
"COC(=O)C1=C(CN2CC(F)(F)[C@@H]3CN(CC(C)(C)C(=O)O)C[C@@H]32)NC(c2nccs2)=N[C@H]1c1ccc(F)c(F)c1Cl (single isomer, unassigned) [Compound 21B, 3-((cis)-1-((6-(2-chloro-3,4-difluorophenyl)-5-(methoxycarbonyl)-2-(thiazol-2-yl)-3,6-dihydropyrimidin-4-yl)methyl)-3,3-difluorohexahydropyrrolo[3,4-b]pyrrol-5(1H)-yl)-2,2-dimethylpropanoic acid]",22.7,97300
"CCOC(=O)C1=C(CN2CC(F)(F)[C@@H]3CN(CC(C)(C)C(=O)O)C[C@@H]32)NC(c2nccs2)=N[C@H]1c1cccc(F)c1Cl (single isomer, unassigned) [Compound 22B, 3-((cis)-1-((6-(2-chloro-3-fluorophenyl)-5-(ethoxycarbonyl)-2-(thiazol-2-yl)-3,6-dihydropyrimidin-4-yl)methyl)-3,3-difluorohexahydropyrrolo[3,4-b]pyrrol-5(1H)-yl)-2,2-dimethylpropanoic acid]",8.9,70400
"CCOC(=O)C1=C(CN2CC(F)(F)[C@@H]3CN(C(=O)CC(C)(C)C(=O)O)C[C@@H]32)NC(c2nccs2)=N[C@H]1c1cccc(F)c1C (single isomer, unassigned) [Compound 23B]",24,30200
"CCOC(=O)C1=C(CN2CC[C@]3(F)CN(CC(C)(C)C(=O)O)C(=O)[C@H]23)NC(c2nccs2)=N[C@H]1c1cccc(F)c1C (single isomer, unassigned) [Compound 24A]",221,48500
"CCOC(=O)C1=C(CN2CC[C@H]3C(=O)N(CC(C)(C)C(=O)O)C[C@H]32)NC(c2nccs2)=N[C@H]1c1cccc(F)c1C (single isomer, unassigned) [Compound 25A]",32.4,74500
"CCOC(=O)C1=C(CN2CC(F)(F)[C@H]3[C@@H]2CCN3[C@H](C)C(=O)O)NC(c2nccs2)=N[C@H]1c1cccc(F)c1C (single isomer, unassigned) [Compound 26E]",5.2,28100
"CCOC(=O)C1=C(CN2CC(F)(F)[C@H]3[C@@H]2CCN3[C@@H](C)C(=O)O)NC(c2nccs2)=N[C@H]1c1cccc(F)c1C (single isomer, unassigned) [Compound 26F]",14.8,41700
"COC(=O)C1=C(CN2CC(F)(F)[C@@H]3C(=O)N(CC(C)(C)C(=O)O)C[C@@H]32)NC(c2nccs2)=N[C@H]1c1ccc(F)cc1Cl (single isomer, unassigned) [Compound 28, 3-((cis)-1-((6-(2-chloro-4-fluorophenyl)-5-(methoxycarbonyl)-2-(thiazol-2-yl)-3,6-dihydropyrimidin-4-yl)methyl)-3,3-difluoro-4-oxohexahydropyrrolo[3,4-b]pyrrol-5(1H)-yl)-2,2-dimethylpropanoic acid]",28.2,> 100000
"COC(=O)C1=C(CN2CC(F)(F)[C@@H]3C(=O)N(CC(C)(C)C(=O)O)C[C@@H]32)NC(c2nccs2)=N[C@H]1c1cccc(F)c1Cl (single isomer, unassigned) [Compound 29, 3-((cis)-1-((6-(2-chloro-3-fluorophenyl)-5-(methoxycarbonyl)-2-(thiazol-2-yl)-3,6-dihydropyrimidin-4-yl)methyl)-3,3-difluoro-4-oxohexahydropyrrolo[3,4-b]pyrrol-5(1H)-yl)-2,2-dimethylpropanoic acid]",13.5,> 100000
"CCOC(=O)C1=C(CN2CC(F)(F)[C@H]3[C@@H]2CCN3C(=O)[C@H]2CC[C@H](C(=O)O)CC2)NC(c2nccs2)=N[C@H]1c1cccc(F)c1C (single isomer, unassigned) [Compound 30]",81.3,28000
"CCOC(=O)C1=C(CN2CC(F)(F)[C@@H]3CN(C(=O)NS(C)(=O)=O)C[C@@H]32)NC(c2nccs2)=N[C@H]1c1cccc(F)c1C (single isomer, unassigned) [Compound 31]",106,85800
"CCOC(=O)C1=C(CN2CC(F)(F)[C@@H]3CN(S(=O)(=O)NC(C)=O)C[C@@H]32)NC(c2nccs2)=N[C@H]1c1cccc(F)c1C (single isomer, unassigned) [Compound 32]",3.4,31800
"CCOC(=O)C1=C(CN2CC(F)(F)[C@@H]3CN(S(N)(=O)=O)C[C@@H]32)NC(c2nccs2)=N[C@H]1c1cccc(F)c1C (single isomer, unassigned) [Compound 33]",2.4,14600
"CCOC(=O)C1=C(CN2CC(F)(F)[C@H]3[C@@H]2CCN3S(N)(=O)=O)NC(c2nccs2)=N[C@H]1c1cccc(F)c1C (single isomer, unassigned) [Compound 34]",12,14300
"CCOC(=O)C1=C(CN2CC(F)(F)[C@@H]3CN(C(N)=O)C[C@@H]32)NC(c2nccs2)=N[C@H]1c1cccc(F)c1C (single isomer, unassigned) [Compound 35]",13.3,35200
"CCOC(=O)C1=C(CN2CC(F)(F)[C@H]3[C@@H]2CCN3C(N)=O)NC(c2nccs2)=N[C@H]1c1cccc(F)c1C (single isomer, unassigned) [Compound 36]",30.1,26000
